These molecules were tested on H3K9AC (HT1080 cells) (assay: H3K9AC Sandwich ELISA Assay in HT1080 cells (KAT2A primary cell-based screening assay)). Details: H3K9AC sandwich ELISA.
Set-up: species or system Human
Protocol: Human fibrosarcoma cell line HT1080 was obtained from American Type Culture Collection (ATCC), Manassas, VA USA, Cat. HT-1080 (ATCC® CCL-121™). Cells were cultured in MEM (Thermo Fisher Scientific/Gibco Life Technologies Cat. #11-095-080) plus 10% (v/v) FBS (Thermo Fisher Scientific/Gibco Life Technologies Cat. #26140-079) and 1% Penicillin-Streptomycin (Thermo Fisher Scientific/Gibco Life Technologies Cat. #15070063) at 37° C. in 5% CO2.
HT1080 cells were trypsinized, cell viability count performed, and cells suspended in complete media at 100,000 cells/ml. Cells were seeded (100 μl/well) into Greiner Bio-One CELLSTAR 96-well polystyrene flat bottom cell culture microplate (Thermo Fisher Scientific Cat. #07-000-162) at a density of 10,000 cells/well. Cells were incubated for 16 hours at 37° C. at 5% CO2. Compound dilution plates were prepared in 96-well, clear U-bottom, polypropylene plates (Corning 3365) in 100% DMSO at 10 mM stock concentration in duplicate, using 10-point serial dilution (1:3). Compounds were diluted to 1:200 in growth medium and 25 μl from intermediate compound plates were added to each well of the cell plates using a Beckman FX liquid handling system such that the highest compound concentration tested was 10 μM final, with a 0.1% final DMSO concentration in the total volume of 125 μl. Plates were incubated for 24 hours at 37° C. and 5% CO2. Plates were centrifuged at 2500 rpm for 5 minutes and medium was removed. 100 μL 0.4N HCL (Thermo Fisher Scientific Cat #SA56-1) was added to each well and plates were shaken for 60 minutes at 4C to lyse cells. 38ul 0.4N Sodium phosphase dibasic pH12.5 (Thermo Fisher Scientific Cat #S375-212) containing 2 mM Sodium Butyrate (Millipore TR1008G) and 3 mM Phenylmethanesulfonyl-fluoride (Sigma 93482) was added to each well to neutralize lysates.
Cell lysate plates were mixed for 5 minutes at room temperature on shaker and immediately frozen at −80C overnight. Cell lysates were thawed and 50 μL/well was transferred to ELISA plates (Total Histone H3 mouse (Cell Signaling Technology Cat #14269) mAb-coated Corning 1×8 strip-well, white, 96-well plates (Corning 2485)). After 2 hours room temperature incubation, plates were washed six times with PBS/0.05% Tween Wash Buffer using a BioTek plate washer. 50 μL of Histone H3K9AC rabbit detection mAb (Cell Signaling Technology Cat #9649S) diluted 1:1000 in blocking buffer (Thermo Fisher Scientific Cat #37542) was added to each well and incubated for 2 hours at room temperature. After washing, 50 μL anti-rabbit IgG, HRP-Linked antibody (Cell Signaling Technology Cat #7074) diluted 1:1000 in blocking buffer was added to each well and incubated for 60 minutes at room temperature. Following incubation, plates were washed as described above. 50 μL of luminescent GLO substrate reagent (R&D System Cat #DY993) was added to each well and incubated for 10 minutes at room temperature. Plates were read on the PHERAstar plate reader using the 96-well with Luminescent reading mode. IC50 values were calculated using a four-parameter fit with GraphPad Prism version 9.5.1 or in-house modified IDBS ActivityBase data analyzing package.

| Compound | IC50 [nM] |
| --- | --- |
| CN1CC(C)(C)C[C@H]1C(=O)N[C@@H]1CC[C@@H](Oc2cccc(CC(=O)O)c2-c2ccccc2C2CCC2)C1 (atropisomer, axis not shown) [Example H7] | 340 |

Each molecule was assayed against KAT2A (Homo sapiens (Human), UniProt Q92830) (assay: KAT2A acetyltransferase biochemical assay (RapidFire mass spectrometry, AcCoA to CoA)). Details: KAT2A Ki at 1 μM AcCoA, 5 μM H3 1-21 peptide, 0.5 nM KAT2A, 90-minute reaction.
KAT2A, sequence (Q92830 whole entry): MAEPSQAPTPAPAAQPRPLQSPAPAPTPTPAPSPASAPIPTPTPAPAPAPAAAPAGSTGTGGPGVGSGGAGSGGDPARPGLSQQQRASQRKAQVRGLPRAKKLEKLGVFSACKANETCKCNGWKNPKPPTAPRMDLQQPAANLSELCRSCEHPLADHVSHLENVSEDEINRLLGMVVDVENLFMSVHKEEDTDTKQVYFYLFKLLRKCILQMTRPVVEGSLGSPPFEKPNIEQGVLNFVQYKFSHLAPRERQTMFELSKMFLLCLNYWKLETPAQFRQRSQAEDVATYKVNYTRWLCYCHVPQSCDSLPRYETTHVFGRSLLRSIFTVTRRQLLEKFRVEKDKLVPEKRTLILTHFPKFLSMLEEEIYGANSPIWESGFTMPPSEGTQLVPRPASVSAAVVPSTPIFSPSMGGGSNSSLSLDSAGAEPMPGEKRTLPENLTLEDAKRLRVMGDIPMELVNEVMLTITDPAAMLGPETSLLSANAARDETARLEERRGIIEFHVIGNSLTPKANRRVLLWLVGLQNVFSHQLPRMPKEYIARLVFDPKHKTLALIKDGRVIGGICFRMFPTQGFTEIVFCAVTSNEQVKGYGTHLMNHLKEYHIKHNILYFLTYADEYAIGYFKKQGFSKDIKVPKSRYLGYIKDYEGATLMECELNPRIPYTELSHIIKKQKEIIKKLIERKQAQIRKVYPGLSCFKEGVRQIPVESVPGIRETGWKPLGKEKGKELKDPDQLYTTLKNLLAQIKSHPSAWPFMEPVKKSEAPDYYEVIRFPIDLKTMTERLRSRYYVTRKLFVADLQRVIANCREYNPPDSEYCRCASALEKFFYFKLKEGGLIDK
Protocol: • A) Compound preparation • 1) Prepare 10 mM stock solutions in 100% DMSO from solid material. • 2) Serial dilute 10 mM, 1 mM, 0.1 or 0.01 mM compound stocks 3-fold in 100% DMSO for 11-point dose response. • B) Reagent preparation • 1) Prepare 1×assay buffer containing 40 mM bis tris propane pH 8.0, 10 mM NaCl, 0.5 mM EDTA, and 0.002% Tween-20. • 2) Dilute Histone peptide (CPC Scientific) and KAT enzyme together in assay buffer to 1.25×. • 3) Dilute AcCoA (Sigma) in assay buffer to 5×. • C) Enzyme reaction • 1) Final reaction conditions for each KAT assay in a 100ul assay reaction volume: • i) KAT2A 0.5 nM, 1 uM AcCoA, 5 uM H3 1-21 peptide, 90-minute reaction • ii) KAT2B 0.5 nM, 1 uM AcCoA, 5 uM H3 1-21 peptide, 90-minute reaction • 2) Add 2 ul of diluted compound series to the assay plate (96-well round-bottom polypropylene plates) or 2 ul of DMSO for control wells. • 3) Add 11 μL of 10% formic acid to 100% effect (HPE) control wells. • 4) Add 80 ul of 1.25× Histone peptide/KAT mix to the assay plate via Multidrop Combi (ThermoFisher). Incubate 15 min at room temperature. • 5) Add 20 ul of 5× AcCoA to the assay plate via Multidrop Combi. • 6) Stop the reaction after the indicated time with the addition of 11 ul of 10% formic acid via Multidrop Combi. • 7) Each reaction was analyzed using Rapid Fire mass spectrometry platform.
KAT enzymes were expressed using a baculovirus expression system and purified at Pfizer, La Jolla. […] Acetyl coenzyme A was purchased from Sigma-Aldrich (St. Louis, MO). All other biochemical reagents were purchased from Sigma-Aldrich or ThermoFisher Scientific (Waltham, MA).
KAT assays were performed at room temperature in assay buffer containing 1 μM AcCoA, 5 μM histone peptide, 40 mM bis tris propane pH 8.0, 10 mM NaCl, 0.5 mM EDTA 0.002% Tween-20. 80 ul of 1.25× Histone peptide/enzyme mix was added to a 96-well round-bottom polypropylene assay plate containing 2 ul of serially diluted test compound in 100% dimethyl sulfoxide (DMSO). To start the reaction, 20 ul of 5× AcCoA solution was added to the assay plate. KAT assays were terminated after 90 minutes with the addition of 11 ul of 10% formic acid. All assays used histone H3 (1-21) peptide. The final enzyme concentration for each KAT was as follows: KAT2A, 0.5 nM; KAT2B, 0.5 nM. […] Each reaction was analyzed using Rapid Fire mass spectrometry platform. This methodology leverages an Agilent 6495 triple quadrupole (QQQ) mass spectrometer coupled to a RapidFire model 365 to specifically capture and measure KAT2 acetyltransferase activity, converting AcCoA (substrate) to CoA (product).
Area under the curve (AUC) for both substrate and product peaks was determined for KAT2 at M.W. 809.6 [Substrate+H]+ and 767.3 [Product+H]+ with a +/−1 Da tolerance, respectively. Acetyltransferase activity (% of DMSO control) was calculated by: ((AUCProduct/AUCsubstrate)-AUCHPE)/(AUCZPE-AUCHPE))*100. Ki values were determined by fitting the % acetyltransferase activity at each inhibitor concentration to the Morrison equation for tightbinding competitive inhibitors using Pfizer proprietary curve fitting software.
To determine the inhibition of KAT enzymatic activity by test compounds, assay reactions were conducted in a volume of 100 μL in 96-well round-bottom polypropylene assay plate. The reactions were performed in assay buffer (40 mM bis tris propane, pH 8, 10 mM NaCl, 0.5 mM EDTA, 0.002% Tween-20).

| Compound | Ki [nM] |
| --- | --- |
| CC(C)S(=O)(=O)NC(=O)C(C)(C)c1ccc(O[C@@H]2CC[C@@H](NC(=O)[C@@]3(F)CNC4(CCC4)C3)C2)c(-c2cccc(F)c2C2CCC2)c1 (single isomer, unassigned) [Example B3] | 236 |
| CS(=O)(=O)NC(=O)Cc1ccc(O[C@@H]2CC[C@@H](NC(=O)C3(F)CNC4(CCCC4)C3)C2)c(-c2cccc(F)c2C2CCC2)c1 (single isomer, unassigned) [Example B15] | 660 |
| CS(=O)(=O)NC(=O)Cc1ccc(O[C@@H]2CC[C@@H](NC(=O)[C@]3(F)CNC4(CCC4)C3)C2)c(-c2cccc(F)c2C2CCC2)c1 (single isomer, unassigned) [Example C39] | 20.4 |
| Cc1cc(NS(C)(=O)=O)n(-c2ccc(O[C@@H]3CC[C@@H](NC(=O)[C@@]4(F)CNC5(CCC5)C4)C3)c(-c3cccc(F)c3C3CCC3)c2)n1 (single isomer, unassigned) [Example L2] | > 99.9 |
| CC(C)(C(=O)O)c1ccc(O[C@@H]2CC[C@@H](NC(=O)[C@]3(F)CNC4(CCC4)C3)C2)c(-c2cccc(F)c2C2CCC2)c1 [Example A2, 2-(2′-cyclobutyl-3′-fluoro-6-{[(1R,3R)-3-({[(7R)-7-fluoro-5-azaspiro[3.4]oct-7-yl]carbonyl}amino)cyclopentyl]oxy}biphenyl-3-yl)-2-methylpropanoic acid] | 2750 |

Same assay, conditions: read-out: KAT2A Ki at 1 μM AcCoA, 5 μM H3 1-21 peptide, 0.5 nM KAT2A, 90-minute reaction

| Compound | Ki [nM] |
| --- | --- |
| CC(C)(C(=O)NS(=O)(=O)N1CC(F)(F)C1)c1ccc(O[C@@H]2CC[C@@H](NC(=O)[C@]3(F)CNC4(CCC4)C3)C2)c(-c2cccc(F)c2C2CCC2)c1 (single isomer, unassigned) [Example B9] | 209 |
| CC(C)(C(=O)NS(=O)(=O)C1CC1)c1ccc(O[C@@H]2CC[C@@H](NC(=O)[C@]3(F)CNC4(CCC4)C3)C2)c(-c2cccc(F)c2C2CCC2)c1 (single isomer, unassigned) [Example B11] | 517 |
| CCS(=O)(=O)NC(=O)C(C)(C)c1ccc(O[C@@H]2CC[C@@H](NC(=O)[C@@]3(F)CNC4(CCCC4)C3)C2)c(-c2cccc(F)c2C2CCC2)c1 (single isomer, unassigned) [Example B19] | 34.7 |
| CCS(=O)(=O)NC(=O)C(C)(C)c1ccc(O[C@@H]2CC[C@@H](NC(=O)[C@@]3(F)CNCC(C)(C)C3)C2)c(-c2cccc(F)c2C2CCC2)c1 (single isomer, unassigned) [Example B21] | 81.7 |
| CC(C)S(=O)(=O)NC(=O)C(C)(C)c1ccc(O[C@@H]2CC[C@@H](NC(=O)[C@@]3(F)CNC4(CCCC4)C3)C2)c(-c2cccc(F)c2C2CCC2)c1 (single isomer, unassigned) [Example B23] | > 1000 |
| CC(C)(C(=O)NS(=O)(=O)C1CC1)c1ccc(O[C@@H]2CC[C@@H](NC(=O)[C@@]3(F)CNC4(CCCC4)C3)C2)c(-c2cccc(F)c2C2CCC2)c1 (single isomer, unassigned) [Example B25] | 72.8 |
| CC1(C)CNC[C@](F)(C(=O)N[C@@H]2CC[C@@H](Oc3ccc(C(C)(C)C(=O)NS(=O)(=O)C4CC4)cc3-c3cccc(F)c3C3CCC3)C2)C1 (single isomer, unassigned) [Example B27] | 103 |
| CC(C)S(=O)(=O)NC(=O)C(C)(C)c1ccc(O[C@@H]2CC[C@@H](NC(=O)[C@@]3(F)CNCC(C)(C)C3)C2)c(-c2cccc(F)c2C2CCC2)c1 (single isomer, unassigned) [Example B29] | 221 |
| CC(C)(C(=O)NS(=O)(=O)C1(C)CC1)c1ccc(O[C@@H]2CC[C@@H](NC(=O)[C@@]3(F)CNC4(CCC4)C3)C2)c(-c2cccc(F)c2C2CCC2)c1 (single isomer, unassigned) [Example B33] | 27.6 |
| CCc1c(F)cccc1-c1cc(C(C)(C)C(=O)NS(C)(=O)=O)ccc1O[C@@H]1CC[C@@H](NC(=O)[C@@]2(F)CNC3(CCCC3)C2)C1 (single isomer, unassigned) [Example C26] | 338 |
| CCc1c(F)cccc1-c1cc(C(C)(C)C(=O)NS(=O)(=O)C(C)C)ccc1O[C@@H]1CC[C@@H](NC(=O)[C@@]2(F)CNC3(CCCC3)C2)C1 (single isomer, unassigned) [Example C28] | 302 |
| O=C(Cc1ccc(O[C@@H]2CC[C@@H](NC(=O)[C@@]3(F)CNC4(CCC4)C3)C2)c(-c2cccc(F)c2C2CCC2)c1)NS(=O)(=O)C1CC1 (single isomer, unassigned) [Example C30] | 238 |
| CC1(C)CNC[C@](F)(C(=O)N[C@@H]2CC[C@@H](Oc3ccc(C(C)(C)C(=O)NS(=O)(=O)C4(C)CC4)cc3-c3cccc(F)c3C3CCC3)C2)C1 (single isomer, unassigned) [Example C34] | 321 |
| CC1(C)CNC[C@](F)(C(=O)N[C@@H]2CC[C@@H](Oc3ccc(C(C)(C)C(=O)NS(C)(=O)=O)cc3-c3cccc(F)c3C3CCC3)C2)C1 (single isomer, unassigned) [Example C36] | 118 |
| CC(C)c1c(F)cccc1-c1cc(C(C)(C)C(=O)NS(=O)(=O)C2(C)CC2)ccc1O[C@@H]1CC[C@@H](NC(=O)[C@@]2(F)CNC3(CCC3)C2)C1 (single isomer, unassigned) [Example C42] | > 99.9 |
| CC(C)S(=O)(=O)NC(=O)C(C)(C)c1ccc(O[C@@H]2CC[C@@H](NC(=O)[C@]3(F)CNC4(CCC4)C3)C2)c(-c2ccccc2C2CCC2)c1 (single isomer, unassigned) [Example C49] | > 99.9 |
| CC(C)c1ccccc1-c1cc(CC(=O)NS(=O)(=O)C2(C)CC2)ccc1O[C@@H]1CC[C@@H](NC(=O)[C@@]2(F)CNC3(CCCC3)C2)C1 (single isomer, unassigned) [Example C62] | > 99.9 |
| CCS(=O)(=O)NC(=O)Cc1ccc(O[C@@H]2CC[C@@H](NC(=O)[C@@]3(F)CNC4(CCCC4)C3)C2)c(-c2ccccc2C(C)C)c1 (single isomer, unassigned) [Example C64] | > 99.9 |
| CCc1c(F)cccc1-c1cc(CC(=O)NS(=O)(=O)C(C)C)ccc1O[C@@H]1CC[C@@H](NC(=O)[C@@]2(F)CNCC(C)(C)C2)C1 (single isomer, unassigned) [Example C66] | 11.8 |
| CC1(S(=O)(=O)NC(=O)Cc2ccc(O[C@@H]3CC[C@@H](NC(=O)[C@@]4(F)CNC5(CCCC5)C4)C3)c(-c3cccc(F)c3C3CCC3)c2)CC1 (single isomer, unassigned) [Example C68] | 13.2 |
| CCc1c(F)cccc1-c1cc([C@@H](C)C(=O)NS(=O)(=O)C2(C)CC2)ccc1O[C@@H]1CC[C@@H](NC(=O)[C@@]2(F)CNC3(CCCC3)C2)C1 (single isomer, unassigned) [Example C84] | > 99.9 |
| CCc1c(F)cccc1-c1cc([C@@H](C)C(=O)NS(=O)(=O)C2(C)CC2)ccc1O[C@@H]1CC[C@@H](NC(=O)[C@@]2(F)CNC3(CCCC3)C2)C1 (single isomer, unassigned) [Example C86] | > 99.9 |
| CN1CC2(CCCC2)C[C@H]1C(=O)N[C@@H]1CC[C@@H](Oc2ccc(C(=O)O)cc2-c2ccccc2C2CCC2)C1 (single isomer, unassigned) [Example D8] | 926 |
| C[C@H](C(=O)O)c1nn(C)cc1-c1ccc(O[C@@H]2CC[C@@H](NC(=O)[C@]3(F)CNC4(CCC4)C3)C2)c(-c2cccc(F)c2C2CCC2)c1 (single isomer, unassigned) [Example J3] | 842 |
| CCn1cc(-c2ccc(O[C@@H]3CC[C@@H](NC(=O)[C@@]4(F)CNC5(CCC5)C4)C3)c(-c3cccc(F)c3C3CCC3)c2)c(C(=O)O)n1 (single isomer, unassigned) [Example J14] | 284 |
